Laboratory results published in paper PMC10266040 (Proceedings of the National Academy of Sciences of the …, 2023).
Numbering of substitutions follows the chain as printed.

What was measured:
ETR1 [1] = biological target: T1, ETR1 (Arabidopsis thaliana, UniProt P49333, K91R); experiment: saturable […]ethylene radioligand binding to yeast expressing the mutant
T1 sequence (P49333 1-738 K91R): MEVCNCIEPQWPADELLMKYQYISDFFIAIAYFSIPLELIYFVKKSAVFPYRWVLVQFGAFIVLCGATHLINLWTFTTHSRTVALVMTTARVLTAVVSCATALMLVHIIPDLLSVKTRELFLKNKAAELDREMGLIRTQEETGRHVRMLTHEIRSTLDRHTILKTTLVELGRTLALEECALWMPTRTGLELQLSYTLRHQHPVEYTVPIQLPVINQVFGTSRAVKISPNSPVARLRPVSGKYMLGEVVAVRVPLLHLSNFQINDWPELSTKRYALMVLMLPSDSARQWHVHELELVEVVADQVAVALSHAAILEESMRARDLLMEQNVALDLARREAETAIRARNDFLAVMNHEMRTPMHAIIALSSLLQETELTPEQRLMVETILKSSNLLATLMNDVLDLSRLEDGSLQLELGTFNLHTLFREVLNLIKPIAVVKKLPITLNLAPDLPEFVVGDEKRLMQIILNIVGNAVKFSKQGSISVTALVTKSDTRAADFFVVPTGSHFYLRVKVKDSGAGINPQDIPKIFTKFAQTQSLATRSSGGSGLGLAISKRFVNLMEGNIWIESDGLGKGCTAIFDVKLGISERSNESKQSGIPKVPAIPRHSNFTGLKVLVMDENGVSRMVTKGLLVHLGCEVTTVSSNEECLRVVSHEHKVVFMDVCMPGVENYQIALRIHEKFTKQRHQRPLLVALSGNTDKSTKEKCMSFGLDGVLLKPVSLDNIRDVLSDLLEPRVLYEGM

ETR1 [2] = biological target: T2, ETR1 (Arabidopsis thaliana, UniProt P49333, K91M); experiment: as above
T2 sequence (P49333 1-738 K91M): T1 sequence (P49333 1-738 K91R) with R91M

C=C [ethylene]
% of wildtype binding (ETR1 [1]): 63 % of wildtype binding | % of wildtype binding (ETR1 [2]): ~ 6 % of wildtype binding
